Laboratory results taken from patent US12226396B2, “Gluconic acid derivatives for use in the treatment and/or prevention of microbial infections” (GEDEA BIOTECH AB, priority 2017, dated 2025).

Columns and labels:
[1] = system: Beta-Hemolytic Streptococci Groups G Streptococcus dysgalactiae ss equisimilis CCUG 7975; test: MIC microdilution test; type: cell-based; conditions: CCUG7975, 5% CO2
Method: (§1) The test substance solution was prepared aseptically at 1 g/ml in sterile H2O. […] After 48 and 72 hours of incubation, the OD was measured and ocular assessments were done. […] All strains were recovered from microbanks and streak and subculture plates were made. The aerobes on TSA plates, the fastidious aerobes on horse blood plates and the anaerobe on FAA plates. […] At the time of testing, loopfuls of colonies selected from 18- to 24-hour agar plates for the aerobes and fastidious aerobes were suspended in 5 ml saline in 10 ml tubes containing 10 glass beads a 3 mm in diameter. […] The cell suspensions were then vortexed vigorously for 1 minute to obtain a turbid suspension. Each suspension of the aerobes and fastidious aerobes was adjusted to equal OD 0.28 at 475 nm using a spectrophotometer, which correlates approximately to 1-3×10^8 CFU/ml with most species. For the anaerobe, the OD measurement turned out to be difficult due to the use of blood in the culture medium. […] The aerobes and fastidious aerobes were further diluted in saline 10 times so that the inoculum concentration equaled to […]. The anaerobe was not diluted but used directly as is. The different aerobic and fastidious aerobic bacterial suspensions were transferred to respective wells of a 96 well plate. A. baumannii, E. coli, and P. aeruginosa were placed in one row, the Staphylococci spp. were placed in a second row, and the fastidious aerobes were placed in a third row of the plate. The anaerobe was transferred from a 25 ml multichannel pipette reservoir. The Microdilution Preparations and the MIC tests were performed as in example 13.

[2] = system: Streptococcus agalactiae CCUG 29376; test: MIC microdilution test; type: cell-based; conditions: CCUG 29376, 5% CO2
Method: as §1

[3] = system: Staphylococcus aureus CCUG 15915/ATCC 29213; test: MIC microdilution test; type: cell-based; conditions: CCUG 15915, aerobic
Method: as §1

[4] = system: Acetinobacter baumanii CCUG 57035; test: MIC microdilution test; type: cell-based; conditions: CCUG 57035, aerobic
Method: as §1

[5] = system: Beta-Hemolytic Streptococci Groups C Streptococcus dysgalactiae ss equisimilis CCUG 4211; test: MIC microdilution test; type: cell-based; conditions: CCUG 4211, 5% CO2
Method: as §1

[6] = system: Streptococcus pyogenes CCUG 47803/ATCC 700294; test: MIC microdilution test; type: cell-based; conditions: CCUG 47803, 5% CO2
Method: as §1

[7] = system: Pseudomonas aeruginosa (PAO1) CCUG 56489/ATCC 15692; test: MIC microdilution test; type: cell-based; conditions: CCUG 56489, aerobic
Method: as §1

[8] = system: Staphylococcus epidermidis CCUG 23118; test: MIC microdilution test; type: cell-based; conditions: CCUG 23118, aerobic
Method: as §1

[9] = system: Porphyromonas gingivalis CCUG 25893/ATCC 33277; test: MIC microdilution test; type: cell-based; conditions: CCUG 25893, strict anaerobic conditions
Method: as §1

[10] = system: Escherichia coli CCUG 3274/ATCC 10536; test: MIC microdilution test; type: cell-based; conditions: CCUG 3274, aerobic
Method: as §1

[11] = system: Gardnerella vaginalis CCUG 3717; test: MIC microdilution test; type: cell-based; conditions: CAMHB, 48 hours, 5% CO2
Method: (§2) Gardnerella vaginalis, Lactobacillus iners, and Lactobacillus crispatus were recovered by CCUG (Culture Collection of University of Gothenburg). Subculture plates were made for G. vaginalis on Chocolate-GL plates and Lactobacillus spp. on M.R.S. agar plates at 5% CO2, 36° C. The inoculums were prepared from the subculture plates. Colonies were inoculated to culture tubes with 5 ml test medium and vortexed 2 min with about 10 glass beads a 3 mm in diameter. Colonies were taken until the turbidity of the solution was OD475 of 0.4-0.5. The bacterial solutions were checked in light microscopy at ×40 with phase contrast to make sure that the cells were dispersed. Each bacterial suspension was diluted in its test medium, 1:100, to equal 1-3×10^6 CFU/ml. The microbial solutions were stored at 20° C. during the preparation of the inoculums
(§3) The test substance solution was prepared aseptically at 1 g/ml in sterile H2O. The first row of wells was filled with 100 μl substance and then 2 fold dilutions were done vertically in 8 steps.
(§4) Next, 100 μl microorganisms were added and the plates were gently shaken at 500 rpm for 30 seconds before incubation at 35° C. and 90% RH in the CO2 incubator set at 5% CO2. After 48 and 72 hours of incubation, the OD was measured and ocular assessments were done. The pH was also measured for all dilutions, n=1, pH=6.8-7.1

[12] = system: Lactobacillus crispatus CCUG 44128; test: MIC microdilution test; type: cell-based; conditions: IsoS-M.R.S., 48 hours, 5% CO2
Method: as §2, §3, §4

[13] = system: C. albicans; test: Microfluidics study of biofilm development (cell morphology); type: cell-based, Candida albicans; conditions: 1 h hydrolysate of 2.5 g pellet diluted 50 times, after 5 h
Method: To monitor the C. albicans cell morphology we studied the biofilm development also using microscopy and microfluidics. After the yeast cells were inoculated, hyphae started to form within first hour of incubation in the biofilm medium (YNB supplemented with 100 mM proline and 0.2% glucose, pH7.0). […] A sample was taken after 1 h and diluted 50 times with biofilm medium and added to C. albicans.

[14] = system: C. glabrata; test: Viability of mature biofilm, XTT assay; type: cell-based, Candida glabrata; conditions: 24 h of incubation with GDA
Method: XXT is a colorimetric assay for quantification of cellular viability, and cytotoxicity. The assay is based on the cleavage of the tetrazolium salt XTT, a conversion that only occurs in viable cells. […] Then the cells were washed 2 times with PBS, after which the XTT reaction mixture was added. After 30 min the optical density measured at 485 nm.

Compound: O=C1O[C@H](CO)[C@@H](O)[C@H](O)[C@H]1O [GDA, glucono-δ-lactone]
- MIC (g/ml) [1]: 0.0031 g/ml
- MIC (g/ml) [2]: 0.0031 g/ml
- MIC (g/ml) [3]: 0.0063 g/ml
- MIC (g/ml) [4]: 0.0031 g/ml
- MIC (g/ml) [5]: 0.0016 g/ml
- MIC (g/ml) [6]: 0.0031 g/ml
- MIC (g/ml) [7]: 0.0031 g/ml
- MIC (g/ml) [8]: 0.0031 g/ml
- MIC (g/ml) [9]: 0.0031 g/ml
- MIC (g/ml) [10]: 0.0063 g/ml
- MIC (g/ml) [11]: 0.001 g/ml
- MIC (g/ml) [12]: 0.0078 g/ml
- cell morphology [13]: most treated cells were planctonic
- decrease in viability of mature biofilm (XTT) [14]: strong decrease in viability
